Earlier results, collected in publication PMC5383348 (Trends in cancer, 2017).

Legend:
[1] = test system: cultured cancer cell lines for triple-negative breast cancer and multiple myeloma
[2] = test system: xenograft models for triple-negative breast cancer and multiple myeloma
[3] = test system: recombinant human GLS; details: read-out: IC50 value against recombinant human GLS

IC50 [3]: < 50 nM
SMILES: O=C(Cc1cccc(OC(F)(F)F)c1)Nc1ccc(CCCCc2nnc(NC(=O)Cc3ccccn3)s2)nn1 [CB-839]
efficacy against cultured cancer cell lines [1]: shown efficacy | efficacy against xenograft models [2]: shown efficacy
